This data set is described as follows: Photochromic response of test square polymerizates on an optical bench. The data set is classed as physicochemical. The note with it: for ΔOD@ SATURATION: UV exposure continued for 20 minutes; for ΔOD@ SATURATION / ΔOD/MIN SENSITIVITY: test squares by method 1, 75°F (23.9°C); for ΔOD/MIN SENSITIVITY: measured over the first five (5) seconds of UV exposure, expressed on a per minute basis; for Bleach (T1/2): time for absorbance of the activated form to reach one half the highest absorbance at room temperature (75°F, 23.9°C) after removal of activating light, method 1; for LAMBDA MAX (VISIBLE): wavelength in the visible spectrum of maximum absorption of the activated (colored) form, diethylene glycol bis(allyl carbonate) composition. As to the method: Testing was done with the photochromic naphthopyrans of the Examples incorporated or imbibed into test square polymerizates by one of two different methods. In Method I, the photochromic naphthopyrans of the Examples were incorporated into polymeric samples. The quantity of naphthopyran calculated to yield a 1.5 times 10^-3 molal solution was added to a flask containing 50 grams of a monomer blend of 4 parts ethoxylated bisphenol A dimethacrylate (BPA 2EO DMA), 1 part poly(ethyleneglycol) 600 dimethacrylate, and 0.033 weight percent 2,2'-azobis(2-methyl propionitrile) (AIBN). The naphthopyrans were dissolved into the monomer blend by stirring and gentle heating, if necessary. After a clear solution was obtained, it was poured into a flat sheet mold having the interior dimensions of 2.2 mm x 6 inches (15.24 cm) x 6 inches (15.24 cm). The mold was sealed and placed in a horizontal air flow, programmable oven set to increase the temperature from 40°C. to 95°C. over a 5 hour interval, hold the temperature at 95°C. for 3 hours and then lower it to 60°C. for at least 2 hours before the end of the curing cycle. After the molds were opened, the polymer sheets were cut using a diamond blade saw into 2 inch (5.1 centimeters) test squares.
In Method II, the photochromic naphthopyran was imbibed into test square polymerizates prepared from a diethylene glycol bis(allyl carbonate) composition. The test squares measured 1/8 inch (0.3 centimeters) x 2 inches (5.1 centimeters) x 2 inches (5.1 centimeters). In the imbibition process, the photochromic naphthopyran was dissolved to form a 10 weight percent solution in a 1:9 mixture of ethyl cellulose:toluene. The solution was then spin coated onto the test squares and allowed to dry. Samples were then heated in a hot-air oven at 135-155°C for a period of time sufficient to thermally transfer the photochromic into the test squares. […] After cooling, the ethyl cellulose/toluene resin film was removed from the test squares by washing with acetone.
The photochromic test squares were tested for photochromic response rates on an optical bench. Prior to testing on the optical bench, the photochromic test squares were exposed to 365 nanometer ultraviolet light for about 15 minutes to activate the photochromic compounds and then placed into a 76°C oven for about 15 minutes to bleach or inactivate the photochromic compounds. The test squares were then cooled to room temperature, exposed to fluorescent room lighting for at least 2 hours and then kept covered for at least 2 hours prior to testing on an optical bench maintained at 75°F (23.9°C). The bench was fitted with a 150 watt Xenon arc lamp, a remote controlled shutter, a copper sulfate bath acting as a heat sink for the arc lamp, a Schott WG-320 nm cut-off filter which removes short wavelength radiation; neutral density filter(s) and a sample holder in which the square to be tested was inserted. A collimated beam of light from a tungsten lamp was passed through the square at a small angle normal to the square. After passing through the square, the light from the tungsten lamp was directed through a photopic filter attached to a detector. The photopic filter passes wavelengths such that the detector mimics the response of the human eye. The output signals from the detector(s) were processed by a radiometer.
Change in optical density (ΔOD) was determined by inserting a test square in the bleached state into the sample holder, adjusting the transmittance scale to 100%, opening the shutter from the Xenon lamp to provide ultraviolet radiation to change the test square from the bleached state to an activated (i.e., darkened) state, measuring the transmittance in the activated state, and calculating the change in optical density according to the formula Δ OD=log(100/%Ta) where %Ta is the percent transmittance in the activated state and the logarithm is to the base 10. […]

The structures appear in SMILES notation.

In the case of `COC(=O)c1c2c(c3ccccc3c1O)OC(c1ccccc1)(c1ccc(N3CCOCC3)cc1)C=C2` (stereo not drawn) [Example 1, 2-(4-morpholinophenyl)-2-phenyl-5-methoxycarbonyl-6-hydroxy-2H-naphtho[1,2-b]pyran], the “ΔOD@ SATURATION” value is on record as 1.36, the “ΔOD/MIN SENSITIVITY” value is given as 0.64, the “Bleach (T1/2)” value is 3.22 min and the “LAMBDA MAX (VISIBLE)” value is 511.
With `COC(=O)c1c2c(c3ccccc3c1OC)OC(c1ccccc1)(c1ccc(N3CCOCC3)cc1)C=C2` (stereo not drawn) [Example 2, 2-(4-morpholinophenyl)-2-phenyl-5-methoxycarbonyl-6-methoxy-2H-naphtho[1,2-b]pyran], the “ΔOD@ SATURATION” value is 0.95, the “ΔOD/MIN SENSITIVITY” value came to 0.29, the “Bleach (T1/2)” value came out at 4.87 min and the “LAMBDA MAX (VISIBLE)” value came to 541.
The like results for `COC(=O)c1c2c(c3ccccc3c1OC(C)=O)OC(c1ccccc1)(c1ccc(N3CCOCC3)cc1)C=C2` (stereo not drawn) [Example 3, 2-(4-morpholinophenyl)-2-phenyl-5-methoxycarbonyl-6-acetoxy-2H-naphtho[1,2-b]pyran] were, in that order, 0.31, 0.24, 1.47 min and 545.
For `COC(=O)c1c2c(c3ccccc3c1OC(C)=O)OC(c1ccccc1)(c1ccc(N(C)C)cc1)C=C2` (stereo not drawn) [Example 4, 2-(4-dimethylaminophenyl)-2-phenyl-5-methoxycarbonyl-6-acetoxy-2H-naphtho[1,2-b]pyran], in that order: 0.30, 0.27, 1.17 min and 591.
The like results for `COC(=O)c1c2c(c3ccccc3c1C)OC(c1ccccc1)(c1ccc(N(C)C)cc1)C=C2` (stereo not drawn) [Example 5, 2-(4-dimethylaminophenyl)-2-phenyl-5-methoxycarbonyl-6-methyl-2H-naphtho[1,2-b]pyran] were, in that order, 0.51, 0.20, 3.33 min and 584.
`COC(=O)c1c2c(c3ccccc3c1OC(C)=O)OC(c1ccc(N(C)C)cc1)(c1ccc(N(C)C)cc1)C=C2` [Example 6, 2,2-bis(4-dimethylaminophenyl)-5-methoxycarbonyl-6-acetoxy-2H-naphtho[1,2-b]pyran]: the “ΔOD@ SATURATION” value worked out at 0.07, the “ΔOD/MIN SENSITIVITY” value stood at 0.16, the “Bleach (T1/2)” value was 0.317 min and the “LAMBDA MAX (VISIBLE)” value came out at 618.

The record behind these values is patent EP1000025B1, “SUBSTITUTED NAPHTHOPYRANS” (TRANSITIONS OPTICAL, INC., priority 1997, dated 1998).
